This note sets out measurements from ChEMBL document CHEMBL5729731, “Imidazole-containing inhibitors of ALK2 kinase” (2023).

The target of the assay is T1, Activin receptor type-1 (Homo sapiens, UniProt Q04771).
T1 sequence (Q04771 whole entry): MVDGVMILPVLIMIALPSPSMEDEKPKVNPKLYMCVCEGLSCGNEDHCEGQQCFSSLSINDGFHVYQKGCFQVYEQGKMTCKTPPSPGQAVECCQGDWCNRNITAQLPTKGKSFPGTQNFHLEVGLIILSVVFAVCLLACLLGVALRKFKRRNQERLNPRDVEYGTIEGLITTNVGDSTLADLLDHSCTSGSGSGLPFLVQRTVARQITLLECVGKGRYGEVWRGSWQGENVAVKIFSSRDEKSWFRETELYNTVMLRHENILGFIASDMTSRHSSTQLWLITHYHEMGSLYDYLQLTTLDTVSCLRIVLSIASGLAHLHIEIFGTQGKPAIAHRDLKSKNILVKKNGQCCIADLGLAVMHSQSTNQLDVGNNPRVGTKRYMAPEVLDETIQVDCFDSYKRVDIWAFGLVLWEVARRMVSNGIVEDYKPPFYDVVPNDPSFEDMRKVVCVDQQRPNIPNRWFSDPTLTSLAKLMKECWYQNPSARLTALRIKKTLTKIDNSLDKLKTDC
As to the kind of experiment: Biochemical assay: Biochemical assays to measure the inhibitory effects of the compounds were performed by ThermoFisher Scientific (Life Technologies). ALK2 inhibition was tested using LanthaScreen Eu Kinase Binding Assay screening protocol.

With `COc1cc(-n2cnc(Nc3nc(-c4cccc(CO)c4)nc4sc(CO)cc34)c2)cc(OC)c1OC`, the IC50 was below 100 nM.
